According to patent US20130065227A1, “METHODS OF INCREASING MACROPINOCYTOSIS IN CANCER CELLS” (priority 2010, published 2013):

What was measured:
Type in all cases: cell-based
[1] = tested on: DU145; test: Stimulation of macropinocytosis (dextran uptake)
Experimental: (Panel A) DU145 cells were treated with 10 μM tAS1411 or 10 μM tCRO or no oligonucleotide in complete DMEM medium at 37° C. for the time indicated. After treatment, cell medium was changed for fresh complete medium containing 0.2 mg/ml dextran-10K labeled with Alexa Fluor 488, and cells were incubated for 30 min at 37° C. After incubation, cells were harvested and analyzed by flow cytometry to determine dextran uptake. (Panel B) The same experiment was performed using Hs27 cells. (Panel C) DU145 cells were treated with 10 μM tAS1411 or 10 μM tCRO or no oligonucleotide in complete DMEM medium at 37° C. for 48 h. After treatment, cell medium was changed for fresh complete medium containing 0.2 mg/ml dextran-10K tagged with Alexa Fluor 488, and cells were incubated for 30 min at 37° C. Then, cells were washed with cold PBS, added PBS containing 5 μg/ml PI and incubated on ice for 5 min. After washing with cold PBS, cells were fixed and the distribution of macropinocytic marker was visualized by confocal microscopy. The nucleus was stained with DAPI (blue). Scale bars, 10 μm. All experiments have been repeated at least three times. Data are mean of three independent samples; bars, SE; *(p<0.05).
FIG. 6 are graphs showing that nucleolin regulates AS1411-induced stimulation of macropinocytosis. DU145 cells were untreated (no transfection) or transfected, without siRNA (mock), or with 30 nM of one of three different nucleolin siRNAs (NCL1, NCL2, NCL3) or a control siRNA (scramble). 48 h after transfection, cells were incubated with 10 μM tAS1411, 10 μM tCRO, or no oligonucleotide in complete DMEM medium at 37° C. for 24 h. (Panel A) After treatment, cell medium was changed for fresh complete medium containing 0.2 mg/ml dextran-10K labeled with Alexa Fluor 488 (green) and incubated for 30 min at 37° C. (Panel B) After treatment, some cells were washed, fresh complete medium containing 10 μM FL-AS1411 added and incubated for 2 h at 37° C. After incubation, cells were harvested and analyzed by flow cytometry. Mean fluorescence was normalized to “not transfected” control (Panel A) or to no pre-treatment control (Panel B). All experiments have been repeated at least three times. Data are the mean of three independent samples; bars, SE; *(p<0.05).
FIG. 11 is a graph showing a comparison between AS1411 and tAS1411 in the ability to stimulate macropinocytosis. DU145 cells were plated 18 hr before treatment with different concentrations (0, 5, 10, or 15 μM) of AS1411, tAS1411 or tCRO in complete DMEM medium at 37° C. for 48 h. After treatment, cell medium was changed for fresh complete medium containing 0.2 mg/ml dextran-10K labeled with Alexa Fluor 488, and cells were incubated for 30 min at 37° C. After incubation, cells were incubated on ice with […] PI in PBS, harvested, fixed and immediately analyzed by flow cytometry.
To analyze uptake of the oligodeoxynucleotides or dextran-10K (macropinocytic marker) by flow cytometry, 2×10^5 cells in fresh supplemented culture medium (2.5 ml) were plated into 6-well plates for 18 h. After complete adhesion, the cells were incubated with 5′-FAM tagged oligodeoxynucleotides or Alexa Fluor 488 tagged dextran-10K and incubated as indicated in the Description of the Drawings. Cells were washed once with ice-cold PBS, incubated with 1 μg/ml 7-amino-actinomycin D (7-AAD) for 5 min on ice or 1 μg/ml propidium iodide (PI), and washed twice with ice-cold PBS. Cells were then treated with 0.01% trypsin/0.5 mM EDTA (300 μl) for 3 min prior addition 3 ml supplemented culture medium. The cells were then centrifuged and resuspended in 0.5 ml of 1% paraformaldehyde for analysis by flow cytometry using a FACScalibur cytometer (BD Biosciences, Mountain View, Calif.).
AS1411 causes a change in cancer cell morphology that is characterized by vacuolization, irregular nuclei, and swollen cells (Xu et al., 2001, J. Biol. Chem., 276:43221-30). […]

[2] = tested on: DU145 cells; test: Cell death / cytotoxicity
[3] = tested on: DU145 cells; test: Uptake of fluorescently labeled duplex siRNA after AS1411 pre-treatment; conditions: 10 μM, 48 h
Source text: FIG. 18 is a graph showing the uptake of siRNA in the presence of AS1411.
Furthermore, due to the unique properties of MPsomes, delivery by MP leads to increased functional activity. Thus, treatment with AS1411, followed by administration of an anticancer siRNA, for example, leads to a synergistic increase in anticancer effects without harming normal cells. Another strategy to potentiate the effects of AS1411 is to combine it with agents that promote MP and activation of Rac. This leads to increased macropinocytic uptake of AS1411 and/or enhanced methuosis.

[4] = tested on: RWPE1; test: Stimulation of macropinocytosis (dextran uptake); conditions: Non-cancer, prostate epithelial
Source text: (§1) It has recently been discovered that AS1411 can stimulate macropinocytosis (MP) in cancer cells and this finding was verified by several different methods and in multiple cancer cell lines (Table 1).

[5] = tested on: A549; test: Stimulation of macropinocytosis (dextran uptake); conditions: Cancer, non-small cell lung
Source text: as §1

[6] = tested on: CHO; test: Stimulation of macropinocytosis (dextran uptake); conditions: Non-cancer, hamster ovary
Source text: as §1

[7] = tested on: BEAS2B; test: Stimulation of macropinocytosis (dextran uptake); conditions: Non-cancer, lung epithelial
Source text: as §1

[8] = tested on: RCC4; test: Stimulation of macropinocytosis (dextran uptake); conditions: Cancer, renal cell
Source text: as §1

[9] = tested on: SK-N-DZ; test: Stimulation of macropinocytosis (dextran uptake); conditions: Cancer, neuroblastoma
Source text: as §1

5′-d(GGTGGTGGTGGTTGTGGTGGTGGTGG) [AS1411]
stimulation of macropinocytosis compared with tAS1411 ([1]; 0, 5, 10, or 15 μM for 48 h): same response as tAS1411 | dextran uptake after treatment for shorter times ([1]; 1 h, 2 h, and 4 h): No changes in dextran uptake | Stimulate MP? ([1]; DU145, Cancer, prostate): Yes | timing of cell death ([2]; 40 μM AS1411): within hours | cytotoxicity at higher concentrations ([2]; concentrations higher than 40 μM, early time point (2 h)): apparent cytotoxicity | siRNA delivery after pre-treatment [3]: substantial increase in siRNA delivery | Stimulate MP? [4]: No | Stimulate MP? [5]: Yes | Stimulate MP? [6]: No | Stimulate MP? [7]: No | Stimulate MP? [8]: Yes | Stimulate MP? [9]: Yes
